≈ marks a conversion by molar mass, not a printed value. Like-named read-outs stand apart in the source and are kept apart here.
Columns and labels:
[1] = test system: Influenza virus A/WSN/33 (H1N1); assay: microbe, parasite or virus in culture; type: cell-based; settings: 72 h
[2] = in vitro; settings: bovine; for CC50 at 72 h: mdbk cells
[3] = viral strain: Influenza virus A/WSN/33 (H1N1), Cell: MDBK, […], 3 days, read-out: IC50

SMILES	IC50 ([1]; H1N1|WSN, MDBK)	CC50 [2]	IC50 [1, 3]	CC50 at 72 h [2]
C[C@H]1CC[C@H]2C(C)(C)[C@H](O)CC[C@]23Oc2c(c(OP(=O)(O)O)cc4c2CNC4=O)C[C@]13C.[Na] [Compound (59b), (6a R, 7 S, 9a S, 11 R, 13a S)-2,3,6,6a, 7,8,9,9a, 10, 11, 12, 13-dodecahydro-11-hydroxy-5-dihydroxyphosphinyloxy-6a, 7, 10,10-tetramethyl-3-oxo-1H-benzo[8,8a][1]benzopyrano[2,3-e]isoindole monosodium salt]	0.001 µg/mL	> 10 µg/mL		
C[C@H]1CC[C@H]2C(C)(C)[C@@H](O)CC[C@]23Oc2c(c(O)cc4c2CNC4=O)C[C@]13C [(2)]			0.001 µg/mL (≈ 0.00259 µM)	25 µg/mL (≈ 64.9 µM)
CC(=O)N[C@H]1CC[C@@]23Oc4c(c(O)cc5c4CNC5=O)C[C@]2(C)[C@@H](C)CC[C@H]3C1(C)C [Compound (47b), (6aR, 7S, 9aS, 11S, 13aS)-11-acetylamino-2,3,6,6a, 7,8,9,9a, 10, 11, 12, 13-dodecahydro-5-hydroxy-6a, 7, 10, 10-tetramethyl-3-oxo-1H-benzo[8,8a][1]benzopyrano[2,3-e]isoindole]		> 10 µg/mL	0.02 µg/mL (≈ 0.0469 µM)	
C[C@H]1CC[C@H]2C(C)(C)[C@@H](O)[C@@H](OC(=O)c3ccccc3)C[C@]23Oc2c(c(O)cc4c2CNC4=O)C[C@]13C [Compound (50c), (6a R, 7 S, 9a S, 11 R, 12 S, 13a S)-12-benzoyloxy-2,3,6,6a, 7,8,9,9a, 10, 11, 12, 13-dodecahydro-5,11-dihydroxy-6a, 7, 10, 10-tetramethyl-3-oxo-1H-benzo[8,8a][1]benzopyrano[2,3-e]isoindole]		5 to 10 µg/mL (≈ 9.89 to 19.8 µM)	0.05 µg/mL (≈ 0.0989 µM)	
C[C@H]1CC[C@H]2C(C)(C)[C@H]3O[C@H]3C[C@]23Oc2c(c(O)cc4c2CNC4=O)C[C@]13C [Compound (43a), (6a R, 7 S, 9a S, 11 R, 12 S, 13a S)-11,12-epoxy-2,3,6,6a, 7,8,9,9a, 10, 11, 12, 13-dodecahydro-5-hydroxy-6a, 7, 10, 10-tetramethyl-3-oxo-1H-benzo[8,8a][1]benzopyrano[2,3-e]isoindole]		40 µg/mL (≈ 104 µM)	0.001 to 0.002 µg/mL (≈ 0.00261 to 0.00522 µM)	
C[C@H]1NC(=O)c2cc(O)c3c(c21)O[C@@]12CC[C@H](O)C(C)(C)[C@@H]1CC[C@H](C)[C@@]2(C)C3 [Compound (67b), (1R, 6aR, 7S, 9aS, 11S, 13aS)-2,3,6,6a, 7,8,9,9a, 10, 11, 12, 13-dodecahydro-5, 11-dihydroxy-1,6a, 7, 10, 10-pentamethyl-3-oxo-1H-benzo[8,8a][1]benzopyrano[2,3-e]isoindole]		25 to 50 µg/mL (≈ 62.6 to 125 µM)	0.032 µg/mL (≈ 0.0801 µM)	
C[C@H]1CC[C@H]2C(C)(C)CCC[C@]23Oc2c(c(O)cc4c2CNC4=O)C[C@]13C [Compound (42), (6a R, 7 S, 9a S, 13a S)-2,3,6,6a, 7,8,9,9a, 10, 11, 12, 13-dodecahydro-5-hydroxy-6a, 7, 10, 10-tetramethyl-3-oxo-1H-benzo [8,8a] [1] benzopyrano[2,3-e]isoindole]		5 µg/mL (≈ 13.5 µM)	0.002 µg/mL (≈ 0.00541 µM)	
C[C@H]1CC[C@H]2C(C)(C)[C@H](O)CC[C@]23Oc2c(c(O)cc4c2C(=O)NC4=O)C[C@]13C [Compound (70), (6aR, 7S, 9aS, 11R, 13aS)-2,3,6,6a, 7,8,9,9a, 10, 11, 12, 13-dodecahydro-5, 11-dihydroxy-6a, 7, 10, 10-tetramethyl-13-dioxo-1H-benzo[8,8a][1]benzopyrano[2,3-e]isoindole]			0.008 µg/mL (≈ 0.02 µM)	12.5 to 25 µg/mL (≈ 31.3 to 62.6 µM)
CC(=O)N1Cc2c(cc(O)c3c2O[C@@]24CC[C@H](O)C(C)(C)[C@@H]2CC[C@H](C)[C@@]4(C)C3)C1=O [Compound (28f), (6aR, 7S, 9aS, 115, 13aS)-2-acetyl-2,3,6,6a, 7,8,9,9a, 10, 11, 12, 13-dodecahydro-5,11-dihydroxy-6a, 7, 10, 10-tetramethyl-3-oxo-1H-benzo[8,8a][1]benzopyrano[2,3-e]isoindole]			0.02 µg/mL (≈ 0.0468 µM)	> 10 µg/mL
C[C@H]1CC[C@H]2C(C)(C)[C@@H](O)CC[C@]23Oc2c(c(O)cc4c2CN(S(C)(=O)=O)C4=O)C[C@]13C [Compound (28e), (6aR, 7S, 9aS, 11S, 13aS)-2,3,6,6a, 7,8,9,9a, 10, 11, 12, 13-dodecahydro-5, 11-dihydroxy-6a, 7, 10, 10-tetramethyl-2-methanesulfonyl-3-oxo-1H-benzo[8,8a][1]benzopyrano[2,3-e]isoindole]		> 10 µg/mL	0.03 µg/mL (≈ 0.0647 µM)	
COC1NC(=O)c2cc(O)c3c(c21)O[C@@]12CC[C@H](O)C(C)(C)[C@@H]1CC[C@H](C)[C@@]2(C)C3 (stereo partly drawn) [Compound (30b), (6aR, 7S, 9aS, 11S, 13aS)-2,3,6,6a, 7,8,9,9a, 10, 11, 12, 13-dodecahydro-5, 11-dihydroxy-1-methoxy-6a, 7, 10, 10-tetramethyl-3-oxo-1H-benzo[8,8a][1]benzopyrano[2,3-e]isoindole]		20 µg/mL (≈ 48.1 µM)	0.04 µg/mL (≈ 0.0963 µM)	
C[C@H]1CC[C@H]2C(C)(C)[C@@H](NS(C)(=O)=O)CC[C@]23Oc2c(c(O)cc4c2CNC4=O)C[C@]13C [Compound (47c), (6aR, 7S, 9aS, 11S, 13aS)-2,3,6,6a, 7,8,9,9a, 10, 11, 12, 13-dodecahydro-5-hydroxy-6a, 7, 10, 10-tetramethyl-11-methanesulfonylamino-3-oxo-1H-benzo[8,8a][1]benzopyrano[2,3-e]isoindole]		> 10 µg/mL	0.01 µg/mL (≈ 0.0216 µM)	
C[C@H]1CC[C@H]2C(C)(C)[C@@H](O)[C@@H](OS(=O)(=O)c3ccccc3)C[C@]23Oc2c(c(O)cc4c2CNC4=O)C[C@]13C [Compound (50e), (6a R, 7 S, 9a S, 11 R, 12 S, 13a S)-2,3,6,6a, 7,8,9,9a, 10, 11,12,13-dodecahydro-5,11-dihydroxy-6a, 7, 10, 10-tetramethyl-12-phenylsulfonyloxy-3-oxo-1H-benzo[8,8a][1]benzopyrano[2,3-e]isoindole]		> 10 µg/mL	0.0016 to 0.0032 µg/mL (≈ 0.00295 to 0.00591 µM)	
C[C@H]1CC[C@H]2C(C)(C)[C@@H](O)CC[C@]23Oc2c(c(O)cc4c2C(=O)N(C)C4=O)C[C@]13C [Compound (32b), (6aR, 7S, 9aS, 11S, 13aS)-2,3,6,6a, 7,8,9,9a, 10, 11, 12, 13-dodecahydro-5, 11-dihydroxy-2,6a, 7, 10, 10-pentamethyl-13-dioxo-1H-benzo[8,8a][1]benzopyrano[2,3-e]isoindole]			0.04 µg/mL (≈ 0.0967 µM)	10 µg/mL (≈ 24.2 µM)
C[C@H]1CC[C@H]2C(C)(C)[C@@H](NC(=O)Nc3ccccc3)CC[C@]23Oc2c(c(O)cc4c2CNC4=O)C[C@]13C [Compound (47e), (6aR, 7S, 9aS, 11S, 13aS)-2,3,6,6a, 7,8,9,9a, 10, 11, 12, 13-dodecahydro-5-hydroxy-6a, 7, 10, 10-tetramethyl-11-(3-phenylureido)-3-oxo-1H-benzo[8,8a][1]benzopyrano[2,3-e]isoindole]		> 10 µg/mL	0.025 µg/mL (≈ 0.0496 µM)	
C[C@H]1CC[C@H]2C(C)(C)[C@@H](O)[C@@H](O)C[C@]23Oc2c(c(O)cc4c2CNC4=O)C[C@]13C [Compound (50a), (6a R, 7 S, 9a S, 11 R, 12 S, 13a S)-2,3,6,6a, 7,8,9,9a, 10, 11, 12, 13-dodecahydro-5,11,12-trihydroxy-6a, 7, 10, 10-tetramethyl-3-oxo-1H-benzo[8,8a][1]benzopyrano[2,3-e]isoindole]		> 40 µg/mL	0.004 µg/mL (≈ 0.00996 µM)	
C[C@H]1CC[C@H]2C(C)(C)[C@@H](O)CC[C@]23Oc2c(c(O)cc4c2C(O)NC4=O)C[C@]13C (stereo partly drawn) [Compound (30a), (6aR, 7S, 9aS, 11S, 13aS)-2,3,6,6a, 7,8,9,9a, 10, 11, 12, 13-dodecahydro-1,5, 11-trihydroxy-6a, 7, 10, 10-tetramethyl-3-oxo-1H-benzo[8,8a][1]benzopyrano[2,3-e]isoindole]		> 40 µg/mL	0.002 µg/mL (≈ 0.00498 µM)	
C[C@H]1CC[C@H]2C(C)(C)[C@@H](O)[C@@H](OS(C)(=O)=O)C[C@]23Oc2c(c(O)cc4c2CNC4=O)C[C@]13C [Compound (50d), (6a R, 7 S, 9a S, 11 R, 12 S, 13a S)-2,3,6,6a, 7,8,9,9a, 10, 11,12,13-dodecahydro-5,11-dihydroxy-6a, 7,10, 10-tetramethyl-12-methanesulfonyloxy-3-oxo-1H-benzo[8,8a][1]benzopyrano[2,3-e]isoindole]		> 10 µg/mL	0.0016 µg/mL (≈ 0.00334 µM)	
C[C@H]1CC[C@H]2C(C)(C)[C@@H](O)CC[C@]23Oc2c(c(OP(=O)(O)O)cc4c2CNC4=O)C[C@]13C.[Na] [Compound (59a), (6aR, 7S, 9aS, 11S, 13aS)-2,3,6,6a, 7,8,9,9a, 10, 11, 12, 13-dodecahydro-11-hydroxy-5-dihydroxyphosphinyloxy-6a, 7,10, 10-tetramethyl-3-oxo-1H-benzo[8,8a][1]benzopyrano[2,3-e]isoindole monosodium salt]	0.001 µg/mL	> 10 µg/mL		
C[C@H]1CC[C@H]2C(C)(C)[C@H](OS(=O)(=O)c3ccccc3)CC[C@]23Oc2c(c(O)cc4c2CNC4=O)C[C@]13C [Compound (13d), (6a R, 7 S, 9a S, 11 R, 13a S)-2,3,6,6a, 7,8,9,9a, 10, 11, 12, 13-dodecahydro-5-hydroxy-6a, 7, 10, 10-tetramethyl-3-oxo-11-phenylsulfonyloxy-1H-benzo[8,8a][1]benzopyrano[2,3-e]isoindole]		10 µg/mL (≈ 19 µM)	0.02 to 0.06 µg/mL (≈ 0.038 to 0.114 µM)	
C[C@H]1CC[C@H]2C(C)(C)[C@@H](O)CC[C@]23Oc2c(c(O)cc4c2C(=O)NC4=O)C[C@]13C [(32a), (6aR, 7S, 9aS, 115, 13aS)-2,3,6,6a, 7,8,9,9a, 10, 11, 12, 13-dodecahydro-5, 11-dihydroxy-6a, 7, 30, 10-tetramethyl-13-dioxo-1H-benzo[8,8a][1]benzopyrano[2,3-e]isoindole]			0.001 to 0.002 µg/mL (≈ 0.0025 to 0.00501 µM)	20 µg/mL (≈ 50.1 µM)
CCCOC1NC(=O)c2cc(O)c3c(c21)O[C@@]12CC[C@H](O)C(C)(C)[C@@H]1CC[C@H](C)[C@@]2(C)C3 (stereo partly drawn) [Compound (30c), (6aR, 7S, 9aS, 11S, 13aS)-2,3,6,6a, 7,8,9,9a, 10, 11, 12, 13-dodecahydro-5, 11-dihydroxy-1-propoxy-6a, 7, 10, 10-tetramethyl-3-oxo-1H-benzo[8,8a][1]benzopyrano[2,3-e]isoindole]		20 µg/mL (≈ 45.1 µM)	0.04 µg/mL (≈ 0.0902 µM)	

— EP0855398B1, “SESQUITERPENE DERIVATIVES HAVING ANTIVIRAL ACTIVITY” (SHIONOGI & CO., LTD., priority 1995, dated 1997)
